Among the data in US10323038B2, “Pyrazole compounds and methods of making and using same” (ABIDE THERAPEUTICS, INC., priority 2015, dated 2019) are IC50 and inhibition values, retold here.

pIC50: −log10 of the molar value. Where only a bound is given, the exact number is not on record here.

Usually pIC50 stands for −log10 of the IC50, conventionally taken in molar units.

In one test the target is MAGL (Mus musculus (Mouse), UniProt O35678). Put plainly: In vitro competitive activity-based protein profiling, MAGL (mouse). To be noted: for inhibition at 1 µM: read-out: MAGL % inh. 1 μM (mouse). The test is classed as biochemical. The procedure, abridged:
(§1)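 Residual MAGL and FAAH activity quantified from fluorescent gel bands after SDS-PAGE. Before that, FP-Rh or HT-01 probe (50 μM stock) labelled for 30 min at 37 °C, following 30 min inhibitor preincubation. Mouse assays used brain membrane fraction or cell lysates, human used prefrontal cortex or cell membranes, all at 1.0 mg/mL protein.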

The next test has as its target FAAH (Mus musculus (Mouse), UniProt O08914). Put plainly: In vitro competitive activity-based protein profiling, FAAH (mouse). The settings on record: for inhibition at 1 µM: read-out: FAAH % inh. 1 μM (mouse). The test is classed as biochemical. The method, boiled down: as §1

FAAH, sequence (O08914 whole entry): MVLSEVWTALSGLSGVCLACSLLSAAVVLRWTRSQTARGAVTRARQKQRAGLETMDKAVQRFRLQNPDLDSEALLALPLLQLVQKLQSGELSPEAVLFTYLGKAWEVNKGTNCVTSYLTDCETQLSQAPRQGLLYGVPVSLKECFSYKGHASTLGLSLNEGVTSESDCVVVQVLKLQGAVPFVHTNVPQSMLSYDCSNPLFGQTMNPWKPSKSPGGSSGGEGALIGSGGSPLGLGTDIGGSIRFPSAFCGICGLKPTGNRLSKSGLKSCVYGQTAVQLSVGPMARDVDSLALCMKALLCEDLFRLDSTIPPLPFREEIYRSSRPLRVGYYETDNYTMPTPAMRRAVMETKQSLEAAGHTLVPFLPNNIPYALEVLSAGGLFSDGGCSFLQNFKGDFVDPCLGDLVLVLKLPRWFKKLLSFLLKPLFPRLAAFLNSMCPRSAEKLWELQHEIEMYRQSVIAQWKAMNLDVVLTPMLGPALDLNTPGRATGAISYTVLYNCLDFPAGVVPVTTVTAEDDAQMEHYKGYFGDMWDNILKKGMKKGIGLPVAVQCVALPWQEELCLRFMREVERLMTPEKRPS
MAGL, sequence (O35678 whole entry): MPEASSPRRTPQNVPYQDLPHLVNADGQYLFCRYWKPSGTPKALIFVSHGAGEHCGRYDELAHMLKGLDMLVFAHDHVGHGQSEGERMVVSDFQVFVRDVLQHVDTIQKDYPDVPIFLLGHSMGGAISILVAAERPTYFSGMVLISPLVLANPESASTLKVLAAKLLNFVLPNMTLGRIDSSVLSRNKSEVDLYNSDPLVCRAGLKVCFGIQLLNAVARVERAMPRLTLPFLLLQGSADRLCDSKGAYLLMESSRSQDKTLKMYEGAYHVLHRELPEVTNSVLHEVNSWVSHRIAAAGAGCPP

Consider `CC(=O)N(C)c1cnn(C(=O)N2CCN(Cc3ccccc3Cl)CC2)c1` [Example 192, N-(1-(4-(2-chlorobenzyl)piperazine-1-carbonyl)-1H-pyrazol-4-yl)-N-methylacetamide], for which, on MAGL, the negative-log IC50 (pIC50) was 6.00 to 7.00 and the inhibition at 1 µM was at least 75%. Further, on FAAH, the pIC50 is 6.00 to 7.00 and the inhibition at 1 µM was at least 75%.
With `CC(=O)N(C)c1cnn(C(=O)N2CCN(Cc3cccc(Cl)c3)CC2)c1` [Example 193, N-(1-(4-(3-chlorobenzyl)piperazine-1-carbonyl)-1H-pyrazol-4-yl)-N-methylacetamide], on MAGL, the pIC50 is 6.00 to 7.00 and the inhibition at 1 µM is at least 75%. On FAAH, the negative-log IC50 (pIC50) is 6.00 to 7.00 and the inhibition at 1 µM was at least 75%.
On to `CC(=O)N(C)c1cnn(C(=O)N2CCN(Cc3ccc(Cl)cc3)CC2)c1` [Example 194, N-(1-(4-(4-chlorobenzyl)piperazine-1-carbonyl)-1H-pyrazol-4-yl)-N-methylacetamide], for which the pIC50 on MAGL is 6.00 to 7.00; on FAAH it was 5.00 to 6.00. In addition, the inhibition at 1 µM at MAGL and on FAAH was at least 75% each time.
As to `CC(=O)N(C)c1cnn(C(=O)N2CCN(Cc3ccc(C(F)(F)F)cc3N3C4CCC3COC4)CC2)c1` [Example 195, N-(1-(4-(2-(3-oxa-8-azabicyclo[3.2.1]octan-8-yl)-4-(trifluoromethyl)benzyl)piperazine-1-carbonyl)-1H-pyrazol-4-yl)-N-methylacetamide], on MAGL, the pIC50 was at least 7.00 and the inhibition at 1 µM was at least 75%. Moreover, on FAAH, the pIC50 is 5.00 to 6.00 and the inhibition at 1 µM lay within 0 to 25%.
Consider `CC(=O)N(C)c1cnn(C(=O)N2CCN(Cc3ccc(Cl)c(Cl)c3)CC2)c1` [Example 196, N-(1-(4-(3,4-dichlorobenzyl)piperazine-1-carbonyl)-1H-pyrazol-4-yl)-N-methylacetamide], for which, at MAGL, the inhibition at 1 µM was at least 75%. Further, on FAAH, the negative-log IC50 (pIC50) was 6.00 to 7.00 and the inhibition at 1 µM was at least 75%.
In the case of `CC(=O)N(C)c1cnn(C(=O)N2CCN(Cc3ccc(N4CCCC4)cc3)CC2)c1` [Example 197, N-methyl-N-(1-(4-(4-(pyrrolidin-1-yl)benzyl)piperazine-1-carbonyl)-1H-pyrazol-4-yl)acetamide], at MAGL, the pIC50 was 6.00 to 7.00 and the inhibition at 1 µM is at least 75%. Besides, on FAAH, the negative-log IC50 (pIC50) was 6.00 to 7.00 and the inhibition at 1 µM is at least 75%.
With `CC(=O)N(C)c1cnn(C(=O)N2CCN(Cc3ccc(C(F)(F)F)cc3)CC2)c1` [Example 198, N-methyl-N-(1-(4-(4-(trifluoromethyl)benzyl)piperazine-1-carbonyl)-1H-pyrazol-4-yl)acetamide], the inhibition at 1 µM on MAGL and at FAAH was at least 75% in each case. For the same molecule, the pIC50 at FAAH was 6.00 to 7.00.
Take `CC(=O)N(C)c1cnn(C(=O)N2CCN(Cc3ccc(CN4CCOCC4)cc3)CC2)c1` [Example 199, N-methyl-N-(1-(4-(4-(morpholinomethyl)benzyl)piperazine-1-carbonyl)-1H-pyrazol-4-yl)acetamide]: the inhibition at 1 µM at MAGL lay in the range of 50 to 75%; on FAAH, 0 to 25%.
The corresponding values for `CC(=O)N(C)c1cnn(C(=O)N2CCN(Cc3ccc(N4CCOCC4)cc3)CC2)c1` [Example 200, N-methyl-N-(1-(4-(4-morpholinobenzyl)piperazine-1-carbonyl)-1H-pyrazol-4-yl)acetamide] are 50 to 75% and 0 to 25%.
Consider `CC(=O)N(C)c1cnn(C(=O)N2CCN(Cc3ccc(-c4ccccc4)cc3C)CC2)c1` [Example 201, N-methyl-N-(1-(4-((3-methylbiphenyl-4 yl)methyl)piperazine-1-carbonyl)-1H-pyrazol-4-yl)acetamide], for which, on MAGL, the negative logarithm of the IC50 (pIC50) was at least 7.00 and the inhibition at 1 µM is at least 75%. On FAAH, the pIC50 is at least 7.00 and the inhibition at 1 µM was at least 75%.
As for `CC(=O)N(C)c1cnn(C(=O)N2CCN(Cc3cccc(Oc4ccccc4)c3)CC2)c1` [Example 202, N-methyl-N-(1-(4-(3-phenoxybenzyl)piperazine-1-carbonyl)-1H-pyrazol-4-yl)acetamide], on MAGL, the pIC50 is at least 7.00 and the inhibition at 1 µM is at least 75%. On FAAH, the pIC50 is at least 7.00 and the inhibition at 1 µM was at least 75%.
With `CC(=O)N(C)c1cnn(C(=O)N2CCN(Cc3ccc(N4CCOCC4)cc3Cl)CC2)c1` [Example 203, N-(1-(4-(2-chloro-4-morpholinobenzyl)piperazine-1-carbonyl)-1H-pyrazol-4-yl)-N-methylacetamide], at MAGL, the pIC50 was at least 7.00 and the inhibition at 1 µM was at least 75%. For the same molecule, at FAAH, the pIC50 was 6.00 to 7.00 and the inhibition at 1 µM is at least 75%.
In the case of `CC(=O)N(C)c1cnn(C(=O)N2CCN(Cc3ccc(N4CCOCC4)cc3C)CC2)c1` [Example 204, N-methyl-N-(1-(4-(2-methyl-4-morpholinobenzyl)piperazine-1-carbonyl)-1H-pyrazol-4-yl)acetamide], the pIC50 on MAGL and on FAAH was 6.00 to 7.00 in each case. Besides, the inhibition at 1 µM at MAGL and on FAAH was at least 75% in each case.
With `CC(=O)N(C)c1cnn(C(=O)N2CCN(Cc3cccc(F)c3)CC2)c1` [Example 205, N-(1-(4-(3-fluorobenzyl)piperazine-1-carbonyl)-1H-pyrazol-4-yl)-N-methylacetamide], on MAGL, the pIC50 was 6.00 to 7.00 and the inhibition at 1 µM was at least 75%. For the same molecule, at FAAH, the pIC50 was 6.00 to 7.00 and the inhibition at 1 µM is at least 75%.
As for `CC(=O)N(C)c1cnn(C(=O)N2CCN(Cc3cccc(C)c3)CC2)c1` [Example 206, N-methyl-N-(1-(4-(3-methylbenzyl)piperazine-1-carbonyl)-1H-pyrazol-4-yl)acetamide], the pIC50 at MAGL was at least 7.00; on FAAH, 6.00 to 7.00. The inhibition at 1 µM on MAGL and on FAAH was at least 75% each time.
Regarding `COc1cccc(CN2CCN(C(=O)n3cc(N(C)C(C)=O)cn3)CC2)c1` [Example 207, N-(1-(4-(3-methoxybenzyl)piperazine-1-carbonyl)-1H-pyrazol-4-yl)-N-methylacetamide], the inhibition at 1 µM at MAGL and on FAAH was at least 75% in each case.
As to `CC(=O)N(C)c1cnn(C(=O)N2CCN(Cc3cccc(N4CCCC4)c3)CC2)c1` [Example 208, N-methyl-N-(1-(4-(3-(pyrrolidin-1-yl)benzyl)piperazine-1-carbonyl)-1H-pyrazol-4-yl)acetamide], the pIC50 at MAGL was at least 7.00; at FAAH, 6.00 to 7.00. The inhibition at 1 µM at MAGL and on FAAH was at least 75% in each case.
As for `CC(=O)N(C)c1cnn(C(=O)N2CCN(Cc3cccc(C(F)(F)F)c3)CC2)c1` [Example 209, N-methyl-N-(1-(4-(3-(trifluoromethyl)benzyl)piperazine-1-carbonyl)-1H-pyrazol-4-yl)acetamide], the pIC50 on MAGL and at FAAH was at least 7.00 each time. The inhibition at 1 µM at MAGL and at FAAH was at least 75% throughout.
As to `CC(=O)N(C)c1cnn(C(=O)N2CCN(Cc3cccc(N4CCOCC4)c3)CC2)c1` [Example 210, N-methyl-N-(1-(4-(3-morpholinobenzyl)piperazine-1-carbonyl)-1H-pyrazol-4-yl)acetamide], the inhibition at 1 µM on MAGL was at least 75%; on FAAH it was 0 to 25%.
The corresponding values for `CC(=O)N(C)c1cnn(C(=O)N2CCN(Cc3ccccc3F)CC2)c1` [Example 211, N-(1-(4-(2-fluorobenzyl)piperazine-1-carbonyl)-1H-pyrazol-4-yl)-N-methylacetamide] are at least 75% and at least 75%.
For the molecule `CC(=O)N(C)c1cnn(C(=O)N2CCN(Cc3ccccc3C)CC2)c1` [Example 212, N-methyl-N-(1-(4-(2-methylbenzyl)piperazine-1-carbonyl)-1H-pyrazol-4-yl)acetamide], at MAGL, the pIC50 was 6.00 to 7.00 and the inhibition at 1 µM is at least 75%. Further, at FAAH, the pIC50 was 6.00 to 7.00 and the inhibition at 1 µM is at least 75%.
With `COc1ccccc1CN1CCN(C(=O)n2cc(N(C)C(C)=O)cn2)CC1` [Example 213, N-(1-(4-(2-methoxybenzyl)piperazine-1-carbonyl)-1H-pyrazol-4-yl)-N-methylacetamide], the figures for the inhibition at 1 µM on MAGL and on FAAH were at least 75% and 0 to 25%, respectively.
`CC(=O)N(C)c1cnn(C(=O)N2CCN(Cc3ccccc3C(F)(F)F)CC2)c1` [Example 214, N-methyl-N-(1-(4-(2-(trifluoromethyl)benzyl)piperazine-1-carbonyl)-1H-pyrazol-4-yl)acetamide]: on MAGL, the negative logarithm of the IC50 (pIC50) was at least 7.00 and the inhibition at 1 µM is at least 75%. Further, at FAAH, the negative logarithm of the IC50 (pIC50) is at least 7.00 and the inhibition at 1 µM is at least 75%.
Regarding `CC(=O)N(C)c1cnn(C(=O)N2CCN(Cc3ccccc3N3CCCC3)CC2)c1` [Example 215, N-methyl-N-(1-(4-(2-(pyrrolidin-1-yl)benzyl)piperazine-1-carbonyl)-1H-pyrazol-4-yl)acetamide], the inhibition at 1 µM at MAGL was at least 75%; at FAAH it was 25 to 50%.
The matching figures for `CC(=O)N(C)c1cnn(C(=O)N2CCN(Cc3ccccc3N3CCOCC3)CC2)c1` [Example 216, N-methyl-N-(1-(4-(2-morpholinobenzyl)piperazine-1-carbonyl)-1H-pyrazol-4-yl)acetamide]: at least 75% and 0 to 25%.
For `CN(c1cnn(C(=O)N2CCN(Cc3ccc(C(F)(F)F)cc3N3CCCC3)CC2)c1)S(C)(=O)=O` [Example 218, N-methyl-N-(1-(4-(2-(pyrrolidin-1-yl)-4-(trifluoromethyl)benzyl)piperazine-1-carbonyl)-1H-pyrazol-4-yl)methanesulfonamide], at MAGL, the pIC50 was 6.00 to 7.00 and the inhibition at 1 µM is at least 75%. For the same molecule, at FAAH, the negative-log IC50 (pIC50) was 5.00 to 6.00 and the inhibition at 1 µM fell in the range of 25 to 50%.
